Peptide text beside a SMILES is read from it.
Tests used:
HLA A*2402 = biological target: T1, HLA A*2402 (Homo sapiens, UniProt P04439, D101N/D140Y/D185E/E176V/E190D/F33S/G103R/G107R/I119L/I121M/I306V/K335N/L105A/L180Q/L300P/N151K/N90K/Q86E/Q94H/R106L/R138H/R89G/T104I/T345S/V100E/W191G/Y123F); experiment: In vitro class I HLA binding competition assay (fluorescence polarization); conditions: allele A2402; cell-free competition with fluorescently labeled control peptide, fluorescence polarization at 72 hours
T1 construct: Pure Protein, LLC (ran the assay)
Description: The cell-free class I HLA binding assay in use at Pure Protein, LLC allows for in vitro quantification of peptide-HLA binding affinity in a competition format. In this assay, a fluorescently labeled, high binding, control peptide is loaded onto 384-well ½-area plates along with unlabeled experimental peptides. To remove endogenous peptides and render the HLA A and B molecules receptive to binding, HLA is heated at 53°C for 15 minutes and immediately added to the assay. The mixture is then allowed to stand for three days. […] Binding of experimental peptides is expressed as the percent inhibition of the labeled control peptide (experimental fluorescence / control fluorescence, multiplied by 100). The percent inhibition values for each experimental peptide (across a range of molar concentrations) are used to calculate the concentration which inhibits 50% of the labeled control peptide’s specific binding. This value is referred to as the peptide’s IC50.

HLA B*0702 = biological target: T2, HLA B*0702 (Homo sapiens, UniProt P01889); experiment: biochemical; type: binding
T2 construct: Pure Protein, LLC (ran the assay)

HLA A*0201 = biological target: T3, HLA A*0201 (Homo sapiens, UniProt P04439, D140Y/D185E/D98H/E176V/E277Q/G131W/G231S/I119V/I121R/I166T/I218V/L300P/L318F/N151K/N90K/P208A/P217A/Q86G/Q94H/R138H/R169H/T345S); experiment: biochemical; type: binding
T3 construct: Pure Protein, LLC (ran the assay)

HLA B*4402 = HLA B*4402 (Homo sapiens, UniProt P01889, A223V/A65T/A93T/A95T/D201E/D98Y/E176V/E187L/E204Q/E69K/G107R/H137Y/K202T/L105A/L119I/N104T/N87E/Q56L/Q94N/R106L/R155S/R180D/S101N/S121R/S35A/S48T/T118I/V36M/W191S/Y140D/Y91S); experiment: In vitro class I HLA binding competition assay (fluorescence polarization); conditions: allele B4402; cell-free competition with fluorescently labeled control peptide, fluorescence polarization at 72 hours
Description: The cell-free class I HLA binding assay in use at Pure Protein, LLC allows for in vitro quantification of peptide-HLA binding affinity in a competition format. In this assay, a fluorescently labeled, high binding, control peptide is loaded onto 384-well ½-area plates along with unlabeled experimental peptides. To remove endogenous peptides and render the HLA A and B molecules receptive to binding, HLA is heated at 53°C for 15 minutes and immediately added to the assay. The mixture is then allowed to stand for three days. Once the mixture has reached steady equilibrium (at 72 hours), displacement of the high binding control peptide is measured through Fluorescence Polarization. Binding of experimental peptides is expressed as the percent inhibition of the labeled control peptide (experimental fluorescence / control fluorescence, multiplied by 100). The percent inhibition values for each experimental peptide (across a range of molar concentrations) are used to calculate the concentration which inhibits 50% of the labeled control peptide’s specific binding. This value is referred to as the peptide’s IC50.

Compound | IC50 (HLA A*2402) | IC50 (HLA B*0702) | IC50 (HLA A*0201) | IC50 (HLA B*4402)
CC[C@H](C)[C@H](NC(=O)[C@H](CCCCN)NC(=O)[C@H](CCCCN)NC(=O)[C@H](CC(C)C)NC(=O)[C@@H](N)Cc1ccc(O)cc1)C(=O)N[C@@H](CCC(N)=O)C(=O)N[C@@H](CC(N)=O)C(=O)N[C@@H](CO)C(=O)N[C@@H](CC(C)C)C(=O)O [Cluster 319_ICS2] (H-YLKKIQNSL-OH) | 11.2 µM | 9.2 µM | 2.18 µM | –
CC[C@H](C)[C@H](N)C(=O)N[C@@H](CCC(N)=O)C(=O)N[C@@H](CC(N)=O)C(=O)N[C@@H](CO)C(=O)N[C@@H](CC(C)C)C(=O)N[C@@H](CO)C(=O)N[C@H](C(=O)N[C@@H](CCC(=O)O)C(=O)N[C@@H](Cc1c[nH]c2ccccc12)C(=O)O)[C@@H](C)O [Cluster 323_3D7] (H-IQNSLSTEW-OH) | 21.3 µM | – | – | 136 µM
CC[C@H](C)[C@H](NC(=O)[C@H](CO)NC(=O)[C@H](CO)NC(=O)[C@H](CC(N)=O)NC(=O)[C@@H](NC(=O)[C@@H](NC(=O)[C@H](CC(N)=O)NC(=O)[C@H](Cc1ccccc1)NC(=O)[C@@H](N)C(C)C)C(C)C)C(C)C)C(=O)O [Cluster 377_3D7] (H-VFNVVNSSI-OH) | 11.6 µM | – | – | –
CC[C@H](C)[C@H](NC(=O)[C@@H](N)CC(C)C)C(=O)N[C@@H](CCSC)C(=O)N[C@H](C(=O)N[C@@H](CC(C)C)C(=O)N[C@@H](CO)C(=O)N[C@@H](Cc1ccccc1)C(=O)N[C@@H](CC(C)C)C(=O)N[C@@H](Cc1ccccc1)C(=O)O)C(C)C [Cluster 387_3D7] (H-LIMVLSFLF-OH) | 19.3 µM | – | – | –

— PMC8217813, “Bridging Computational Vaccinology and Vaccine Development Through Systematic Identification, Characterization, and Downselection of Conserved and Variable Circumsporozoite Protein CD4 T Cell Epitopes From Diverse Plasmodium falciparum Strains” (Frontiers in Immunology, 2021)
